Assay results from publication PMC8972088 (Bioorganic & medicinal chemistry, 2021).

Columns and labels:
GSK-3β [1] = target: T1, GSK-3β (Homo sapiens, UniProt P49841); assay: GSK-3β kinase assay in presence of reducing agents; details: inhibitor 10 μM; for effect of reducing agents on potency: 2 mM DTT, GSH or TCEP, 84 min
GSK-3β [2] = target: T1, GSK-3β; assay: PhosphoSens real-time kinase assay, wild type GSK-3β; format: biochemical; details: for increase in potency with preincubation: 3-hour preincubation vs no preincubation
GSK-3β [3] = target: T1, GSK-3β; assay: Jump dilution assay; format: biochemical; details: 3-hour pre-incubation with 50 nM GSK-3β, 100-fold dilution; 2 mM ATP
GSK-3β C199A mutant = GSK-3β C199A mutant (Homo sapiens, UniProt P49841, C199A); assay: PhosphoSens kinase assay, GSK-3β C199A mutant; format: biochemical; details: C199A vs wild type GSK-3β
GSK-3β C199A mutant, sequence (P49841 whole entry C199A): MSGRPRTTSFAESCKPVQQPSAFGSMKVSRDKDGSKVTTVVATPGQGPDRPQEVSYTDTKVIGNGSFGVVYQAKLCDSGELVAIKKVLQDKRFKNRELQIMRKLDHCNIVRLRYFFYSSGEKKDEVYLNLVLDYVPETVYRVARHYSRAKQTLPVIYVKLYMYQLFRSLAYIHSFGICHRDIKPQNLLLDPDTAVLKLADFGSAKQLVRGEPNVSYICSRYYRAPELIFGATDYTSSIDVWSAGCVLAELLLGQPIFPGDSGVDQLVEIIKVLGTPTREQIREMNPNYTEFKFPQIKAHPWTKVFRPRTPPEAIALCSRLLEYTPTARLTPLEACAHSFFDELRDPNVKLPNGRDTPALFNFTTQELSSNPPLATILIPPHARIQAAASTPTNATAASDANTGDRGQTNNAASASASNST

KDR (VEGFR2) = KDR (VEGFR2) (Homo sapiens, UniProt P35968); assay: Kinase panel screen, Z'-LYTE; format: biochemical; details: read-out: Inhibition KDR (VEGFR2)
KDR (VEGFR2), sequence (P35968 20-1356): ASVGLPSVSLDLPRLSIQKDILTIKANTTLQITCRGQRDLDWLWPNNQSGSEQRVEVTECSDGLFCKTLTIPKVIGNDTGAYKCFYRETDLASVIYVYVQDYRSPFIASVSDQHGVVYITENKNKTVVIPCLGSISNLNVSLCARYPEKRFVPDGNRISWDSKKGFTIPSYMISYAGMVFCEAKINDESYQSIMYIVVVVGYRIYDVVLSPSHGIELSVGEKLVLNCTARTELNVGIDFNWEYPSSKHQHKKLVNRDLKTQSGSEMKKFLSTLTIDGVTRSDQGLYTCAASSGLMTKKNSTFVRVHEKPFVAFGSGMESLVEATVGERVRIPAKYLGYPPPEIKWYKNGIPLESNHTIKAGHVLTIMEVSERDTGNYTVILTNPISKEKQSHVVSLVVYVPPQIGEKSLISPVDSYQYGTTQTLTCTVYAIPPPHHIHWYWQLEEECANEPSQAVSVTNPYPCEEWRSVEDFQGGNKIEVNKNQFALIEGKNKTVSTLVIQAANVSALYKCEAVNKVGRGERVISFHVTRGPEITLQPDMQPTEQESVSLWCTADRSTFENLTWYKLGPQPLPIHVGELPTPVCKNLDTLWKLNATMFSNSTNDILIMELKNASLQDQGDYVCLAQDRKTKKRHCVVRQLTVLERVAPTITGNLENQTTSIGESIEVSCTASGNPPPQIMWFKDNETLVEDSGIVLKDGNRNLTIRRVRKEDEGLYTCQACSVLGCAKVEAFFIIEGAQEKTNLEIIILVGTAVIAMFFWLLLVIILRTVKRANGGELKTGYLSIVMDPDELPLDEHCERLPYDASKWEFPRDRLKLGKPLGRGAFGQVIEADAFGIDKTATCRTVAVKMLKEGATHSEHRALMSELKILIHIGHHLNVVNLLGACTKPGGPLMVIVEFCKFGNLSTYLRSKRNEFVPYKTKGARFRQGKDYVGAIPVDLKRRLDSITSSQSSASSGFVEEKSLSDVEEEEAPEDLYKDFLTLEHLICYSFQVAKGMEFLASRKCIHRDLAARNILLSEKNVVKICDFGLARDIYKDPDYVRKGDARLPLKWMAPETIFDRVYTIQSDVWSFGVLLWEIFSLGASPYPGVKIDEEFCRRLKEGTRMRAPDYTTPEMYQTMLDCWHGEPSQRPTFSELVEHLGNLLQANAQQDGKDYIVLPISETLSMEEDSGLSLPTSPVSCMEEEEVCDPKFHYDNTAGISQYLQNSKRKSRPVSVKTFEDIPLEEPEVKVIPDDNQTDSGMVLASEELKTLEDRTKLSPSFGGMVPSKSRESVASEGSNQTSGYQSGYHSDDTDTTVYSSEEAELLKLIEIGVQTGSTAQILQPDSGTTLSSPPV

[4] = Reaction of COB-187 with ethanethiol and tributylphosphine in THF; format: physicochemical; details: room temperature to reflux, HPLC and 1H-NMR
MAPKAPK5 (PRAK) = target: T2, MAPKAPK5 (PRAK) (Homo sapiens, UniProt Q8IW41); assay: Kinase panel screen, Z'-LYTE; format: biochemical; details: read-out: Inhibition MAPKAPK5 (PRAK), 2 μM COB-187, ATP Km, ±SD n=2
T2 sequence (Q8IW41 1-473): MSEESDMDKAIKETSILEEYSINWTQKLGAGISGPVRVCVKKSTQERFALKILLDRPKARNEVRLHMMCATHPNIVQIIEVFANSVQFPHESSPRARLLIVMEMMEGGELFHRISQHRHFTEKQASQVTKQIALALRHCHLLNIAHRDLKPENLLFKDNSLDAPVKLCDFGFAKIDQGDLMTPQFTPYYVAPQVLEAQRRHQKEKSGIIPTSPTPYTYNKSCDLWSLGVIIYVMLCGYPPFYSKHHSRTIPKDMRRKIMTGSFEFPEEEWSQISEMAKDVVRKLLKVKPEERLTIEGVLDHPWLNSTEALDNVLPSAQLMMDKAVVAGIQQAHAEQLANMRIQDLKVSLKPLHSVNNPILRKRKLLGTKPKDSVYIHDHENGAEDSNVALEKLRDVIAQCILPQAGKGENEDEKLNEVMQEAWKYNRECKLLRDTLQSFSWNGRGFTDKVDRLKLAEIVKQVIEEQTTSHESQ

T1 sequence (P49841 whole entry): as the sequence (P49841 whole entry C199A) above, with A199C counted along it

| Compound | effect of DTT or GSH on potency (GSK-3β [1]; 2 mM DTT or GSH) | effect of TCEP on potency (GSK-3β [1]; 2 mM TCEP) | increase in potency with preincubation (GSK-3β [2]) | recovery of GSK-3β activity upon jump dilution (GSK-3β [3]) | decrease in potency for the mutant versus wild type (GSK-3β C199A mutant) | effect of reducing agents on potency (GSK-3β [1]) | inhibition at 2 µM (KDR (VEGFR2)) | average k4 from fit of kobs vs concentration to Eq. 8 (induced-fit) (GSK-3β [2]; average of five replicates, ± SD) | reaction with ethanethiol and tributylphosphine [4] | inhibition at 2 µM (MAPKAPK5 (PRAK)) |
| --- | --- | --- | --- | --- | --- | --- | --- | --- | --- | --- |
| COc1ccc(CNC(=O)Nc2ncc([N+](=O)[O-])s2)cc1 [AR-A014418] | not significantly altered | significant but modest reduction |  |  |  |  |  |  |  |  |
| O=C1Cc2c([nH]c3ccc([N+](=O)[O-])cc23)-c2ccccc2N1 [Alsterpaullone] |  |  | no significant increase | recovered most of its activity upon dilution |  |  |  |  |  |  |
| OC1(c2ccccc2)CSC(=S)N1Cc1ccncc1 (centres unmarked) [COB-187, 4-hydroxy-4-phenyl-3-(pyridin-4-ylmethyl)thiazolidine-2-thione] |  |  | < 4 fold |  | > 300 fold | significantly diminished | 8 ± 8.2% | 2.9 × 10^−4 (±4.8 × 10^−4 SD) 1/min | no evidence of any reaction | ~64% |
| COc1cc(O)c2c(c1)[C@H]1O[C@@H]1C[C@H](O)[C@H](O)C(=O)/C=C\C[C@H](C)OC2=O [Hypothemycin] |  |  | ~ 17 fold | did not recover activity upon jump dilution |  | significantly diminished |  |  |  |  |
